Results reported in PubChem BioAssay (NCI).
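In this assay, cells in 96-well plates receive the compound at five concentrations for 48 hours. Endpoints are linearly interpolated between the surrounding concentrations. The concentration for 50% growth inhibition is given as GI50. Definition used: TGI = concentration required for complete inhibition of growth.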

Legend:
Test in all cases: NCI tumour cell line growth inhibition, 48 h; in the data active = GI50 below about 0.43 µM; inactive = the rest
XF 498 CNS = test system: XF 498 CNS
SR leukemia = test system: SR leukemia
NCI-H226 lung = test system: NCI-H226 lung
HCC-2998 colon = test system: HCC-2998 colon
MOLT-4 leukemia = test system: MOLT-4 leukemia
M19-MEL melanoma = test system: M19-MEL melanoma
ACHN renal = test system: ACHN renal
KM20L2 colon = test system: KM20L2 colon
TK-10 renal = test system: TK-10 renal
OVCAR-3 ovarian = test system: OVCAR-3 ovarian
HCT-116 colon = test system: HCT-116 colon
SF-268 CNS = test system: SF-268 CNS
A498 renal = test system: A498 renal
RXF-631 renal = test system: RXF-631 renal
SW-620 colon = test system: SW-620 colon
MALME-3M melanoma = test system: MALME-3M melanoma
UO-31 renal = test system: UO-31 renal
DLD-1 colon = test system: DLD-1 colon
SK-MEL-5 melanoma = test system: SK-MEL-5 melanoma
HOP-92 NSCLC = test system: HOP-92 NSCLC
OVCAR-5 ovarian = test system: OVCAR-5 ovarian
UACC-62 melanoma = test system: UACC-62 melanoma
HOP-62 NSCLC = test system: HOP-62 NSCLC
M14 melanoma = test system: M14 melanoma
786-0 renal = test system: 786-0 renal
DMS 114 small cell lung = test system: DMS 114 small cell lung
U251 CNS = test system: U251 CNS
SF-295 CNS = test system: SF-295 CNS
NCI-H522 lung = test system: NCI-H522 lung
DMS 273 small cell lung = test system: DMS 273 small cell lung
SK-OV-3 ovarian = test system: SK-OV-3 ovarian
SNB-75 CNS = test system: SNB-75 CNS
A549 NSCLC = test system: A549 NSCLC
NCI-H460 lung = test system: NCI-H460 lung
HL-60(TB) leukemia = test system: HL-60(TB) leukemia
K-562 leukemia = test system: K-562 leukemia
RXF 393 renal = test system: RXF 393 renal
LOX IMVI melanoma = test system: LOX IMVI melanoma
HCT-15 colon = test system: HCT-15 colon
OVCAR-4 ovarian = test system: OVCAR-4 ovarian
KM12 colon = test system: KM12 colon
SNB-78 CNS = test system: SNB-78 CNS
COLO 205 colon = test system: COLO 205 colon
SNB-19 CNS = test system: SNB-19 CNS
OVCAR-8 ovarian = test system: OVCAR-8 ovarian
LXFL 529 NSCLC = test system: LXFL 529 NSCLC
SK-MEL-2 melanoma = test system: SK-MEL-2 melanoma
IGROV1 ovarian = test system: IGROV1 ovarian
RPMI-8226 leukemia = test system: RPMI-8226 leukemia
NCI-H23 lung = test system: NCI-H23 lung
CCRF-CEM leukemia = test system: CCRF-CEM leukemia
CAKI-1 renal = test system: CAKI-1 renal
EKVX NSCLC = test system: EKVX NSCLC
HT29 colon = test system: HT29 colon
SN12C renal = test system: SN12C renal
HOP-18 NSCLC = test system: HOP-18 NSCLC
SF-539 CNS = test system: SF-539 CNS
SK-MEL-28 melanoma = test system: SK-MEL-28 melanoma
UACC-257 melanoma = test system: UACC-257 melanoma

COc1ccc2nc3cc(Cl)ccc3c(Sc3ccc([N+](=O)[O-])cc3)c2c1
> 100 µM: TGI (XF 498 CNS) | TGI (NCI-H226 lung) | TGI (MOLT-4 leukemia) | TGI (M19-MEL melanoma) | TGI (KM20L2 colon) | TGI (TK-10 renal) | TGI (OVCAR-3 ovarian) | TGI (HCT-116 colon) | TGI (SF-268 CNS) | TGI (A498 renal) | TGI (RXF-631 renal) | TGI (SW-620 colon) | TGI (MALME-3M melanoma) | TGI (UO-31 renal) | TGI (DLD-1 colon) | TGI (SK-MEL-5 melanoma) | TGI (HOP-92 NSCLC) | TGI (OVCAR-5 ovarian) | TGI (UACC-62 melanoma) | TGI (HOP-62 NSCLC) | TGI (M14 melanoma) | TGI (786-0 renal) | TGI (DMS 114 small cell lung) | TGI (U251 CNS) | TGI (SF-295 CNS) | TGI (NCI-H522 lung) | TGI (DMS 273 small cell lung) | TGI (SK-OV-3 ovarian) | TGI (SNB-75 CNS) | TGI (A549 NSCLC) | TGI (NCI-H460 lung) | TGI (HL-60(TB) leukemia) | TGI (K-562 leukemia) | TGI (RXF 393 renal) | TGI (LOX IMVI melanoma) | TGI (HCT-15 colon) | TGI (OVCAR-4 ovarian) | TGI (KM12 colon) | TGI (COLO 205 colon) | TGI (SNB-19 CNS) | TGI (OVCAR-8 ovarian) | TGI (LXFL 529 NSCLC) | TGI (SK-MEL-2 melanoma) | TGI (IGROV1 ovarian) | TGI (RPMI-8226 leukemia) | TGI (NCI-H23 lung) | TGI (CCRF-CEM leukemia) | TGI (CAKI-1 renal) | TGI (EKVX NSCLC) | TGI (HT29 colon) | TGI (SN12C renal) | TGI (HOP-18 NSCLC) | TGI (SK-MEL-28 melanoma) | TGI (UACC-257 melanoma)
> 10 µM: TGI (SR leukemia) | TGI (HCC-2998 colon) | TGI (ACHN renal) | TGI (SNB-78 CNS) | TGI (SF-539 CNS)
inactive: GI50 (XF 498 CNS) > 100 µM | GI50 (NCI-H226 lung) > 100 µM | GI50 (MOLT-4 leukemia) > 100 µM | GI50 (M19-MEL melanoma) > 100 µM | GI50 (KM20L2 colon) > 100 µM | GI50 (TK-10 renal) > 100 µM | GI50 (OVCAR-3 ovarian) > 100 µM | GI50 (HCT-116 colon) > 100 µM | GI50 (SF-268 CNS) > 100 µM | GI50 (A498 renal) > 100 µM | GI50 (RXF-631 renal) > 100 µM | GI50 (SW-620 colon) > 100 µM | GI50 (MALME-3M melanoma) > 100 µM | GI50 (UO-31 renal) > 100 µM | GI50 (DLD-1 colon) > 100 µM | GI50 (SK-MEL-5 melanoma) > 100 µM | GI50 (HOP-92 NSCLC) > 100 µM | GI50 (OVCAR-5 ovarian) > 100 µM | GI50 (UACC-62 melanoma) > 100 µM | GI50 (HOP-62 NSCLC) > 100 µM | GI50 (M14 melanoma) > 100 µM | GI50 (786-0 renal) > 100 µM | GI50 (DMS 114 small cell lung) > 100 µM | GI50 (U251 CNS) > 100 µM | GI50 (SF-295 CNS) > 100 µM | GI50 (NCI-H522 lung) > 100 µM | GI50 (DMS 273 small cell lung) > 100 µM | GI50 (SK-OV-3 ovarian) > 100 µM | GI50 (SNB-75 CNS) > 10 µM | GI50 (A549 NSCLC) > 100 µM | GI50 (NCI-H460 lung) > 100 µM | GI50 (K-562 leukemia) > 100 µM | GI50 (RXF 393 renal) > 100 µM | GI50 (LOX IMVI melanoma) > 100 µM | GI50 (HCT-15 colon) > 100 µM | GI50 (OVCAR-4 ovarian) > 100 µM | GI50 (KM12 colon) > 100 µM | GI50 (COLO 205 colon) > 100 µM | GI50 (SNB-19 CNS) > 100 µM | GI50 (OVCAR-8 ovarian) > 100 µM | GI50 (LXFL 529 NSCLC) > 100 µM | GI50 (SK-MEL-2 melanoma) > 100 µM | GI50 (IGROV1 ovarian) > 100 µM | GI50 (NCI-H23 lung) > 100 µM | GI50 (CCRF-CEM leukemia) > 100 µM | GI50 (CAKI-1 renal) > 100 µM | GI50 (EKVX NSCLC) > 100 µM | GI50 (SN12C renal) > 100 µM | GI50 (HOP-18 NSCLC) > 100 µM | GI50 (SK-MEL-28 melanoma) > 100 µM | GI50 (UACC-257 melanoma) > 100 µM
